Read-outs that look alike come from different tables or passages of the source.
Experiments:
[1] = molecular target: PI3K-δ (PI3K(p1108/p857) (h)) (Homo sapiens, UniProt O00329); experiment: Evaluation of inhibitory activity against PI3K-δ (HTRF kinase assay); assay type: biochemical; details: for inhibition at 0.01 µM: compound concentration 0.01 μM, read-out: EXP_VALUE(% Inhibition) PI3K-δ 0.01 μM; for inhibition at 0.1 µM: read-out: EXP_VALUE(% Inhibition) PI3K-δ 0.1 μM
How it was run: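 HTRF read-out (665/620 nm ratio ×10000) used Eu-labelled anti-GST, GST-tagged GRP1 PH domain and streptavidin-allophycocyanin after EDTA/PIP3 stop.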

DNA-PK(h) = DNA-PK(h) (Homo sapiens, UniProt P78527); experiment: Evaluation of inhibitory activity against DNA-PK (HTRF kinase assay, GST-cMyc-p53 substrate); assay type: biochemical; details: for inhibition at 0.01 µM: compound concentration 0.01 μM, read-out: EXP_VALUE(% Inhibition) DNA-PK(h) 0.01 μM; for inhibition at 0.1 µM: read-out: EXP_VALUE(% Inhibition) DNA-PK(h) 0.1 μM
How it was run: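 Human DNA-PK with 50 μM GST-cMyc-p53 substrate; reaction started with Mg/ATP, run 30 min at room temperature, stopped with EDTA. Phospho-Ser15 p53 detected by HTRF (Eu anti-phospho-Ser15, d2 anti-GST), signal = 10000×(Em 665/Em 620).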

PI3K-δ (PI3K(p1108/p857) (h)), sequence (O00329 whole entry, the tested form may be a part): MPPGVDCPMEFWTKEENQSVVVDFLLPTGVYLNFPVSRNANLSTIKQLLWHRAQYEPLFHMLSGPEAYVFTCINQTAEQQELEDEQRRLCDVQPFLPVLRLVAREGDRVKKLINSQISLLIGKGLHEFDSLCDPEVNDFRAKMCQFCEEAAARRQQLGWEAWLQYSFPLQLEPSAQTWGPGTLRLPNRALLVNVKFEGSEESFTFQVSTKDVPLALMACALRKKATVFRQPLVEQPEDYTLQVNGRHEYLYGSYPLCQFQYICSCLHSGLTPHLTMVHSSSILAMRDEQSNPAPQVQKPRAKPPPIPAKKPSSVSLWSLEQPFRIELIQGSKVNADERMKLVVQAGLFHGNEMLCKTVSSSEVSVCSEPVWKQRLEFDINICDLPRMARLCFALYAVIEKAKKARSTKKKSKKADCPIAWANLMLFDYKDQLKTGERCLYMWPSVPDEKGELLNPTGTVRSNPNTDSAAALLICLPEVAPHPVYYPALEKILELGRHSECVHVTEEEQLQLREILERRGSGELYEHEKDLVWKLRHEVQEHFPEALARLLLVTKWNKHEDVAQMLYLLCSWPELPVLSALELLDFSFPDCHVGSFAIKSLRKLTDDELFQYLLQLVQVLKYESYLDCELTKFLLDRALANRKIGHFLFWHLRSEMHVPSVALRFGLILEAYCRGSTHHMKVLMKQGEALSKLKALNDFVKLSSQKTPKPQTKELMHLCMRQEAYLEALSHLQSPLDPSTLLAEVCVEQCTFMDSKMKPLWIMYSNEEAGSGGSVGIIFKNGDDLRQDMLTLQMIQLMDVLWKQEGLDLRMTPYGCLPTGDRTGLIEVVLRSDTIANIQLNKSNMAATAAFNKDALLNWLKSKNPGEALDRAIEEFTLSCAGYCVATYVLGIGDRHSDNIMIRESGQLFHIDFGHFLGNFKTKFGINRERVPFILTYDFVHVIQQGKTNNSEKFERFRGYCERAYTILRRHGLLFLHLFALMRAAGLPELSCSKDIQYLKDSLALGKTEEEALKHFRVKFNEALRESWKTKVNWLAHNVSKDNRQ
PI3K-δ (PI3K(p1108/p857) (h)), sequence (P27986 whole entry partner, the tested form may be a part): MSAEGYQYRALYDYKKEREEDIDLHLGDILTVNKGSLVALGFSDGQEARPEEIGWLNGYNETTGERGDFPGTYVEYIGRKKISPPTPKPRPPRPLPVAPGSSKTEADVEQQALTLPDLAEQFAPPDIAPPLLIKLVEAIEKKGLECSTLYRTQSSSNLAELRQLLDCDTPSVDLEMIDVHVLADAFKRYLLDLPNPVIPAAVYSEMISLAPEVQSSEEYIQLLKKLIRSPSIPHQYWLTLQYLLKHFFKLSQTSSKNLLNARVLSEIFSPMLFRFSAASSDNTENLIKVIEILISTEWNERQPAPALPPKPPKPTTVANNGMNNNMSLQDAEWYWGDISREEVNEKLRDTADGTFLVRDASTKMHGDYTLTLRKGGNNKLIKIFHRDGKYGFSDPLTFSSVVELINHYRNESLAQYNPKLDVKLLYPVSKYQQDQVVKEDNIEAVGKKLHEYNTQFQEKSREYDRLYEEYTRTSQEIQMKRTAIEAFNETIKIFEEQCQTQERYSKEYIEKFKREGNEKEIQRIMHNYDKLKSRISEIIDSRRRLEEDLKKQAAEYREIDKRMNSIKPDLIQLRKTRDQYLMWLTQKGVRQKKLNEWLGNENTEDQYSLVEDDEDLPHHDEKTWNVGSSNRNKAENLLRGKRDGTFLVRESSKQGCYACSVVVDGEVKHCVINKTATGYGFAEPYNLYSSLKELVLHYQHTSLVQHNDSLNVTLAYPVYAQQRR

Compound | inhibition at 0.01 µM [1] [%] | inhibition at 0.01 µM (DNA-PK(h)) [%] | inhibition at 0.1 µM ([1]; compound at 0.1 μM) [%] | inhibition at 0.1 µM (DNA-PK(h); compound at 0.1 μM) [%] | inhibition at 0.1 µM ([1]; compound concentration 0.1 μM) [%] | inhibition at 0.1 µM (DNA-PK(h); compound concentration 0.1 μM) [%]
C[C@H](Nc1ncnc2[nH]ccc(=O)c12)c1c(Cl)c2cccc(-c3cnc(N4CCN(C)CC4)nc3)c2c(=O)n1-c1ccccc1 [Example 216, (S)-4-((1-(4-chloro-8-(2-(4-methylpiperazin-1-yl)pyrimidin-5-yl)-1-oxo-2-phenyl-1,2-dihydroisoquinolin-3-yl)ethyl)amino)pyrido[2,3-d]pyrimidin-5(8H)-one] | 96 | 75 | – | – | – | –
C[C@H](Nc1ncnc2[nH]ccc(=O)c12)c1c(Cl)c2cccc(-c3ccc(-n4cccc4)nc3)c2c(=O)n1-c1ccccc1 [Example 3, (S)-4-((1-(8-(6-(1H-pyrrol-1-yl)pyridin-3-yl)-4-chloro-1-oxo-2-phenyl-1,2-dihydroisoquinolin-3-yl)ethyl)amino)pyrido[2,3-d]pyrimidin-5(8H)-one] | 69 | 44 | – | – | – | –
Cc1cncc(-c2cccc3c(Cl)c([C@H](C)Nc4ncnc5[nH]ccc(=O)c45)n(-c4ccccc4)c(=O)c23)c1 [Example 119, (S)-4-((1-(4-chloro-8-(5-methylpyridin-3-yl)-1-oxo-2-phenyl-1,2-dihydroisoquinolin-3-yl)ethyl)amino)pyrido[2,3-d]pyrimidin-5(8H)-one] | 84 | 96 | – | – | 82 | 101
C[C@H](Nc1ncnc2[nH]ccc(=O)c12)c1c(Cl)c2cccc(C3=CCCC3)c2c(=O)n1-c1ccccc1 [Example 156, (S)-4-((1-(4-chloro-8-(cyclopent-1-en-1-yl)-1-oxo-2-phenyl-1,2-dihydroisoquinolin-3-yl)ethyl)amino)pyrido[2,3-d]pyrimidin-5(8H)-one] | 82 | 42 | – | – | – | –
C[C@H](Nc1ncnc2[nH]ccc(=O)c12)c1cc2cccc(-c3ccc(C(N)=O)cc3)c2c(=O)n1-c1ccccc1 [Example 81, (S)-4-(1-oxo-3-(1-((5-oxo-5,8-dihydropyrido[2,3-d]pyrimidin-4-yl)amino)ethyl)-2-phenyl-1,2-dihydroisoquinolin-8-yl)benzamide] | 97 | 22 | – | – | 105 | 76
C[C@H](Nc1ncnc2[nH]ccc(=O)c12)c1c(Cl)c2cccc(-c3ccc4c(ccn4C)c3)c2c(=O)n1-c1ccccc1 [Example 116, (S)-4-((1-(4-chloro-8-(1-methyl-1H-indol-5-yl)-1-oxo-2-phenyl-1,2-dihydroisoquinolin-3-yl)ethyl)amino)pyrido[2,3-d]pyrimidin-5(8H)-one] | 73 | 32 | – | – | 101 | 91
CC(C)NC(=O)c1ccc(-c2cccc3c(Cl)c([C@H](C)Nc4ncnc5[nH]ccc(=O)c45)n(-c4ccccc4)c(=O)c23)cc1 [Example 193, (S)-4-(4-chloro-1-oxo-3-(1-((5-oxo-5,8-dihydropyrido[2,3-d]pyrimidin-4-yl)amino)ethyl)-2-phenyl-1,2-dihydroisoquinolin-8-yl)-N-isopropylbenzamide] | 72 | 71 | – | – | – | –
C[C@H](Nc1ncnc2[nH]ccc(=O)c12)c1c(Cl)c2cccc(-c3cnc(N4CCCCC4)nc3)c2c(=O)n1-c1ccccc1 [Example 224, (S)-4-((1-(4-chloro-1-oxo-2-phenyl-8-(2-(piperidin-1-yl)pyrimidin-5-yl)-1,2-dihydroisoquinolin-3-yl)ethyl)amino)pyrido[2,3-d]pyrimidin-5(8H)-one] | 57 | 19 | – | – | – | –
C[C@H](Nc1ncnc2[nH]ccc(=O)c12)c1c(Cl)c2cccc(-c3cccc4[nH]ccc34)c2c(=O)n1-c1ccccc1 [Example 89, (S)-4-((1-(4-chloro-8-(1H-indol-4-yl)-1-oxo-2-phenyl-1,2-dihydroisoquinolin-3-yl)ethyl)amino)pyrido[2,3-d]pyrimidin-5(8H)-one] | 58 | 17 | – | – | 92 | 52
C[C@H](Nc1ncnc2[nH]ccc(=O)c12)c1c(Cl)c2cccc(-c3cc(F)ccc3Cl)c2c(=O)n1-c1ccccc1 [Example 107, (S)-4-((1-(4-chloro-8-(2-chloro-5-fluorophenyl)-1-oxo-2-phenyl-1,2-dihydroisoquinolin-3-yl)ethyl)amino)pyrido[2,3-d]pyrimidin-5(8H)-one] | 59 | 24 | – | – | 91 | 54
C[C@H](Nc1ncnc2[nH]ccc(=O)c12)c1c(Cl)c2cccc(-c3cnc(N)nc3)c2c(=O)n1-c1ccccc1 [Example 56, (S)-4-((1-(8-(2-aminopyrimidin-5-yl)-4-chloro-1-oxo-2-phenyl-1,2-dihydroisoquinolin-3-yl)ethyl)amino)pyrido[2,3-d]pyrimidin-5(8H)-one] | 81 | 78 | – | – | – | –
C[C@H](Nc1ncnc2[nH]ccc(=O)c12)c1c(Cl)c2cccc(-c3ccc(N(C)C)cc3)c2c(=O)n1-c1ccccc1 [Example 72, (S)-4-((1-(4-chloro-8-(4-(dimethylamino)phenyl)-1-oxo-2-phenyl-1,2-dihydroisoquinolin-3-yl)ethyl)amino)pyrido[2,3-d]pyrimidin-5(8H)-one] | 99 | 58 | – | – | 112 | 96

More lines, now with the values ahead:

inhibition at 0.01 µM [1] [%] | inhibition at 0.01 µM (DNA-PK(h)) [%] | inhibition at 0.1 µM ([1]; compound at 0.1 μM) [%] | inhibition at 0.1 µM (DNA-PK(h); compound at 0.1 μM) [%] | inhibition at 0.1 µM ([1]; compound concentration 0.1 μM) [%] | inhibition at 0.1 µM (DNA-PK(h); compound concentration 0.1 μM) [%] | Compound
– | – | 44 | 68 | – | – | C[C@H](Nc1ncnc2[nH]ccc(=O)c12)c1c(Cl)c2cccc(OCc3ccccn3)c2c(=O)n1-c1ccccc1 [Example 430, (S)-4-((1-(4-chloro-1-oxo-2-phenyl-8-(pyridin-2-ylmethoxy)-1,2-dihydroisoquinolin-3-yl)ethyl)amino)pyrido[2,3-d]pyrimidin-5(8H)-one]
27 | 34 | – | – | 75 | 76 | C[C@H](Nc1ncnc2[nH]ccc(=O)c12)c1c(Cl)c2cccc(-c3nnn[nH]3)c2c(=O)n1-c1ccccc1 [Example 352, (S)-4-((1-(4-chloro-1-oxo-2-phenyl-8-(1H-tetrazol-5-yl)-1,2-dihydroisoquinolin-3-yl)ethyl)amino)pyrido[2,3-d]pyrimidin-5(8H)-one]
– | – | 12 | 15 | – | – | C[C@H](Nc1ncnc2[nH]ccc(=O)c12)c1c(Cl)c2cccc([S@+]([O-])c3ccc(OC(F)(F)F)cc3)c2c(=O)n1-c1ccccc1 [Example 395, 4-(((S)-1-(4-chloro-1-oxo-2-phenyl-8-(((R)-4-(trifluoromethoxy)phenyl)sulfinyl)-1,2-dihydroisoquinolin-3-yl)ethyl)amino)pyrido[2,3-d]pyrimidin-5(8H)-one]
68 | 75 | – | – | 98 | 98 | Cc1ccc(-c2cccc3c(Cl)c([C@H](C)Nc4ncnc5[nH]ccc(=O)c45)n(-c4ccccc4)c(=O)c23)cn1 [Example 257, (S)-4-((1-(4-chloro-8-(6-methylpyridin-3-yl)-1-oxo-2-phenyl-1,2-dihydroisoquinolin-3-yl)ethyl)amino)pyrido[2,3-d]pyrimidin-5(8H)-one]
9 | 1 | – | – | – | – | C[C@H](Nc1ncnc2[nH]ccc(=O)c12)c1c(Cl)c2cccc(Nc3ccc(C(F)(F)F)cc3)c2c(=O)n1-c1ccccc1 [Example 346, (S)-4-((1-(4-chloro-1-oxo-2-phenyl-8-((4-(trifluoromethyl)phenyl)amino)-1,2-dihydroisoquinolin-3-yl)ethyl)amino)pyrido[2,3-d]pyrimidin-5(8H)-one]
80 | 39 | – | – | 102 | 76 | C[C@H](Nc1ncnc2[nH]ccc(=O)c12)c1c(Cl)c2cccc(C(=O)O)c2c(=O)n1-c1ccccc1 [Example 290, (S)-4-chloro-1-oxo-3-(1-((5-oxo-5,8-dihydropyrido[2,3-d]pyrimidin-4-yl)amino)ethyl)-2-phenyl-1,2-dihydroisoquinoline-8-carboxylic acid]
– | – | 89 | 18 | – | – | C[C@H](Nc1ncnc2[nH]ccc(=O)c12)c1c(Cl)c2cccc(S(C)(=O)=O)c2c(=O)n1-c1ccccc1 [Example 390, (S)-4-((1-(4-chloro-8-(methylsulfonyl)-1-oxo-2-phenyl-1,2-dihydroisoquinolin-3-yl)ethyl)amino)pyrido[2,3-d]pyrimidin-5(8H)-one]
80 | 46 | – | – | – | – | C[C@H](Nc1ncnc2[nH]ccc(=O)c12)c1c(Cl)c2cccc(-c3cnc4nonc4c3)c2c(=O)n1-c1ccccc1 [Example 235, (S)-4-((1-(8-([1,2,5]oxadiazolo[3,4-b]pyridin-6-yl)-4-chloro-1-oxo-2-phenyl-1,2-dihydroisoquinolin-3-yl)ethyl)amino)pyrido[2,3-d]pyrimidin-5(8H)-one]
85 | 29 | – | – | – | – | C[C@H](Nc1ncnc2[nH]ccc(=O)c12)c1c(Cl)c2cccc(-c3cccc4c3cnn4C)c2c(=O)n1-c1ccccc1 [Example 237, (S)-4-((1-(4-chloro-8-(1-methyl-1H-indazol-4-yl)-1-oxo-2-phenyl-1,2-dihydroisoquinolin-3-yl)ethyl)amino)pyrido[2,3-d]pyrimidin-5(8H)-one]
